Our source for the % of inhibition and % of control values is ChEMBL document CHEMBL5465560, “Selectivity Literature for EUbOPEN Chemogenomic Library” (2024).

Assay [1] has as its target T1, TGF-beta receptor type-1 (Homo sapiens) (UniProt P36897).
T1 sequence (whole entry): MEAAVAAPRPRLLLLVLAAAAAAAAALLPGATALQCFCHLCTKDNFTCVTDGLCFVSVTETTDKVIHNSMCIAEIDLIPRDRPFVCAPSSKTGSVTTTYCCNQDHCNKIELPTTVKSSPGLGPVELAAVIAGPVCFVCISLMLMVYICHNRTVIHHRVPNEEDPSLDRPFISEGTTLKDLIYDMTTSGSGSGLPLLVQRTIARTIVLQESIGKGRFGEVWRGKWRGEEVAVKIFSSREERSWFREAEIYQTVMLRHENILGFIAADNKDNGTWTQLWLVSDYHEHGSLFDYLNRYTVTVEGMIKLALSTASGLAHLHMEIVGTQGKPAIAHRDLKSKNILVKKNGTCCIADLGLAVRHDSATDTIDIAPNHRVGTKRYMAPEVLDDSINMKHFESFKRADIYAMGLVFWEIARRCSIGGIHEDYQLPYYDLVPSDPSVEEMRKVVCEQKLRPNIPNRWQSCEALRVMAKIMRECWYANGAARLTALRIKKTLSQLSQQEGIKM
As to the kind of experiment: Selectivity interaction (LanthaScreen Eu Kinase Binding Assay) EUB0001632a TGFBR1. To be noted: at 10 µM. On the technique in general: In TR-FRET formats the signal depends on donor and acceptor labels being close together.

The target in assay [2] is Ribosomal protein S6 kinase alpha-4 (Homo sapiens) (UniProt O75676). Nature of the assay: Selectivity interaction (Ambit KINOMEscan and KiNATiv profiling in Jurkat cells) EUB0000090b RPS6KA4. It is filed as cell-based. The note with it: at 1 µM.
Assay [3] concerns the target Tyrosine-protein kinase Lyn (Homo sapiens, UniProt P07948). Nature of the assay: Selectivity interaction (SelectScreen profiling (Invitrogen)) EUB0000607a LYN. To be noted: at 2 µM.
In assay [4] the target is Serine/threonine-protein kinase tousled-like 2 (Homo sapiens) (UniProt Q86UE8). Nature of the assay: Selectivity interaction (KinomeScan (DiscoverX)) EUB0000607a TLK2. To be noted: at 10 µM.
Assay [5] addresses T2, Tyrosine-protein kinase JAK3 (Homo sapiens) (UniProt P52333).
T2 sequence (whole entry): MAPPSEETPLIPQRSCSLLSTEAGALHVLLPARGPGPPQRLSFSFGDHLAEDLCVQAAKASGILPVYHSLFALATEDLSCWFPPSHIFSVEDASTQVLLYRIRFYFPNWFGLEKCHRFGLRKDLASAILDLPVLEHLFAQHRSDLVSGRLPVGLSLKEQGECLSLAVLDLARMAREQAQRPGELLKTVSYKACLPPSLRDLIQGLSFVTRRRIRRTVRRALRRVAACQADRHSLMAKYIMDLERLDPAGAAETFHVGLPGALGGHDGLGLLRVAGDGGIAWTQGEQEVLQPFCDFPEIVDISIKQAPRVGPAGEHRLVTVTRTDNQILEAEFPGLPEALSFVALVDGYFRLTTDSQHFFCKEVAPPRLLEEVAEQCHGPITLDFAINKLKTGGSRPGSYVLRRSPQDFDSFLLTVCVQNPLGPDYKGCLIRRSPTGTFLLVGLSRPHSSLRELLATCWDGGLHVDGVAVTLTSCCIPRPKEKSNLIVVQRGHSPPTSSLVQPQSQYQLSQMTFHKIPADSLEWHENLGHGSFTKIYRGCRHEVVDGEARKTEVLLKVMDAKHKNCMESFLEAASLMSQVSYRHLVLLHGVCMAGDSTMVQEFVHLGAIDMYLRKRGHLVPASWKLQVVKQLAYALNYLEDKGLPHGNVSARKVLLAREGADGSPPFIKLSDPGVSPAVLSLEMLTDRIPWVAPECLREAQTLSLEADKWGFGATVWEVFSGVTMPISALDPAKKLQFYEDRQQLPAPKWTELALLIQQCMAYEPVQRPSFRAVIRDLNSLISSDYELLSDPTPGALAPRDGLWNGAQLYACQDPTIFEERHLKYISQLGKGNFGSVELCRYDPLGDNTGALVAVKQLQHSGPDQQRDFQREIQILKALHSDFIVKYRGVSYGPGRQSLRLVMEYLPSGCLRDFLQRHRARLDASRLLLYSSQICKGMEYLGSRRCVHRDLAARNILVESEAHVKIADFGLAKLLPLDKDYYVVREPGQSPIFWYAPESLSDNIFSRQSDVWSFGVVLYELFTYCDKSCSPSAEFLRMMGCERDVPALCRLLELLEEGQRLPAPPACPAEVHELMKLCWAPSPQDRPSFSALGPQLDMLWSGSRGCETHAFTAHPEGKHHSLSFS
As to the kind of experiment: Selectivity interaction (KinomeScan (DiscoverX)) EUB0000045b JAK3.

The target of assay [6] is T3, Serine/threonine-protein kinase ICK (Homo sapiens) (UniProt Q9UPZ9).
T3 sequence (whole entry): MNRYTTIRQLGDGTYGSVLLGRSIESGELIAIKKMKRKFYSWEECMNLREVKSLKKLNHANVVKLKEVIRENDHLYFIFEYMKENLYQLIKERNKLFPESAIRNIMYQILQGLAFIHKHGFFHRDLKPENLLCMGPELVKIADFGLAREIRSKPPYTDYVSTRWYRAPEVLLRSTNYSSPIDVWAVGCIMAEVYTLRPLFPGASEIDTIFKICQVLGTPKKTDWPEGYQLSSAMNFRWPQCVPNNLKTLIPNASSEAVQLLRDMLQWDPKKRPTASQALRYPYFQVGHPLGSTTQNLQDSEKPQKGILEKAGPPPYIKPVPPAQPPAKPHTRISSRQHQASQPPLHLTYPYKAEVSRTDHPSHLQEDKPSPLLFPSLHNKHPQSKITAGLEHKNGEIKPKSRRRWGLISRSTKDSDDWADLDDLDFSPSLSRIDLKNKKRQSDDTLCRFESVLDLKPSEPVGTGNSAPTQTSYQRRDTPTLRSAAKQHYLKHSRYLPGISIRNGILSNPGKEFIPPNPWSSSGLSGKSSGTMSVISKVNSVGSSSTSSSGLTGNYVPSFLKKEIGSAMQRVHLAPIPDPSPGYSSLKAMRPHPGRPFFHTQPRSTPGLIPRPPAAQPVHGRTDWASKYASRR
As to the kind of experiment: Selectivity interaction (KinomeScan (DiscoverX)) EUB0000045b ICK.

Chain of Tyrosine-protein kinase Lyn (P07948 2-512 limits assumed): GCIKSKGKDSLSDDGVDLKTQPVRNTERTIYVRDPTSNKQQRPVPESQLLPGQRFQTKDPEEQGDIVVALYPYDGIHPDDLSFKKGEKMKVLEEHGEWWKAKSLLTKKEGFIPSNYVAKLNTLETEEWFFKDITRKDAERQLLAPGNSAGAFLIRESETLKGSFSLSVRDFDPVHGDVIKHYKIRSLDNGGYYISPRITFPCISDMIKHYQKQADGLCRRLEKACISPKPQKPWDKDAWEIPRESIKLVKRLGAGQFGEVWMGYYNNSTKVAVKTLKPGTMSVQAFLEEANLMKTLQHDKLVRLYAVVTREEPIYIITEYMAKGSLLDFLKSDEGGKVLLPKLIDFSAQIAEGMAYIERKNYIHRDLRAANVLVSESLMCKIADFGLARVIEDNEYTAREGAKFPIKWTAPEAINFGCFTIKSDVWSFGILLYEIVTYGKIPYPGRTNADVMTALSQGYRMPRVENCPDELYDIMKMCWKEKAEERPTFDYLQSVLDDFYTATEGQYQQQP
Chain of Ribosomal protein S6 kinase alpha-4 (Homo sapiens) (O75676 whole entry, looked up): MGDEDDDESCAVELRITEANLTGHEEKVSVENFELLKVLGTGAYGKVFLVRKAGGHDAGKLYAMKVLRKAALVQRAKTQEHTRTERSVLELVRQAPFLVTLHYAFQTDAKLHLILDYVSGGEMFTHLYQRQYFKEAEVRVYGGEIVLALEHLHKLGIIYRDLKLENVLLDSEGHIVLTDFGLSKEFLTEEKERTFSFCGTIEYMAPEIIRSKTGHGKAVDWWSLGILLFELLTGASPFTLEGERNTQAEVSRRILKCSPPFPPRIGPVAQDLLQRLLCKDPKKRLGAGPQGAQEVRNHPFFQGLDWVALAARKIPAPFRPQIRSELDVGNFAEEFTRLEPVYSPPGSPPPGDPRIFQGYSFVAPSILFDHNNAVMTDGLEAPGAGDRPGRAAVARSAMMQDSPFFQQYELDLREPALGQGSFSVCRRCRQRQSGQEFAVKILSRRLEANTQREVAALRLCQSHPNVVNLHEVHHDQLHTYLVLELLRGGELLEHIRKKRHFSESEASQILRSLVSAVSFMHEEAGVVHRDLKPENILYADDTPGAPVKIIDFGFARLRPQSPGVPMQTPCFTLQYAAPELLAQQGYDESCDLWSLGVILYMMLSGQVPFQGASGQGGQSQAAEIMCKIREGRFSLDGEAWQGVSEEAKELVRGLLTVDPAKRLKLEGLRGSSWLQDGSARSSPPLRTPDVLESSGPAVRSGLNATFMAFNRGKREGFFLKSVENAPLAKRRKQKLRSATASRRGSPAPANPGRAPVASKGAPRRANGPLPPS
Chain of Serine/threonine-protein kinase tousled-like 2 (Homo sapiens) (Q86UE8 whole entry, looked up): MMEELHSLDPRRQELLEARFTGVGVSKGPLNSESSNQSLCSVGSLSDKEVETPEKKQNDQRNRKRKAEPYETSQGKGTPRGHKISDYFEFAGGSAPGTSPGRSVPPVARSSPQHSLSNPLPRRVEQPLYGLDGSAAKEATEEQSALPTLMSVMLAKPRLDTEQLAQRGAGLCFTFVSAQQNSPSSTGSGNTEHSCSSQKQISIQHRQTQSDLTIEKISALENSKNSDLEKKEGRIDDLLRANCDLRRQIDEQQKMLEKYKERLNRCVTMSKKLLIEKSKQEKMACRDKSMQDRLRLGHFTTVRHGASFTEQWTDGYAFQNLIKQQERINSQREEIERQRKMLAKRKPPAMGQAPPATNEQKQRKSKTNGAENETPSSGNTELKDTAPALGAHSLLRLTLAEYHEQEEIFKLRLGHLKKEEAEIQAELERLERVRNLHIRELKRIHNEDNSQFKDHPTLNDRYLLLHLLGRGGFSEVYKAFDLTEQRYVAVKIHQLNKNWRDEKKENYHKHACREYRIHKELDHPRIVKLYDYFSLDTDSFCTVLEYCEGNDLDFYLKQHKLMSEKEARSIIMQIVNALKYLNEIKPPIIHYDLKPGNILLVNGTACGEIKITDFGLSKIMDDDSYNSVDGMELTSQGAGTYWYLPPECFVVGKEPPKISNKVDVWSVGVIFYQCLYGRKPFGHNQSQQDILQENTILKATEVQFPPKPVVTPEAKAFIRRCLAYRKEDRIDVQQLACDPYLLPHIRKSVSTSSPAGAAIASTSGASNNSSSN

The compound `Cn1cc(-n2cnc3c(NCc4nc5cc(Cl)c(Cl)cc5[nH]4)nc(N4CCOCC4)nc32)cn1` came in with a % of inhibition in assay [1] of 0.691%.

In the case of `CN(C)C/C=C/C(=O)Nc1ccc(C(=O)N2CCCC(Nc3ncc(Cl)c(-c4c[nH]c5ccccc45)n3)C2)cc1` (stereo not drawn), in assay [2], the % of control turned out to be 93%.

In assay [3], `CNC(=O)Nc1ccc(-c2nc(N3CC4CCC(C3)O4)c3cnn(C4CCC5(CC4)OCCO5)c3n2)cc1` yielded a % of inhibition of 7%. The % of control in assay [4] stood at 100%.

With `C=CC(=O)Nc1cc(-n2c(=O)ccc3cnc4ccc(-c5ccc(NS(C)(=O)=O)cc5)cc4c32)ccc1C`, the % of control in assay [5] (at 1 µM) stood at 6.6%; in assay [5] (at 10 µM), 0.6%; in assay [6] (at 1 µM), 100%; in assay [6] (at 10 µM) it was 100%.
